In PMC10730845, “Endoxifen downregulates AKT phosphorylation through protein kinase C beta 1 inhibition in ERα+ breast cancer” (NPJ Breast Cancer, 2023):
Where “and” joins values, the source holds several entries; their conditions need not be identical. Equal entries are not always repeated.

Columns and labels:
PKCβ1 [1] = biological target: T1, PKCβ1 (Homo sapiens, UniProt P05771); experiment: In vitro kinase assay, PKCβ1 kinase activity; type: biochemical; conditions: 10 μM ATP, three-fold serial dilution from 50 μM, Fig. 6d
PKC beta 2 (PKCb2) = PKC beta 2 (PKCb2) (Homo sapiens, UniProt P05771); experiment: In vitro kinase assay, PKC beta 2; type: biochemical; conditions: 10 μM ATP
Excerpt: (§1) Supplementary Table 4. In vitro kinase assay showing the IC 50 concentration of ENDX and
(§2) of the 12 PKC family members.
(§3) (1 picture or pasted object on this page, not shown here)

PKC iota (PKCi) = PKC iota (PKCi) (Homo sapiens, UniProt P41743); experiment: In vitro kinase assay, PKC iota; type: biochemical; conditions: 10 μM ATP
Excerpt: as §1, §2, §3

PKC mu (PKCm/PRKD1) = PKC mu (PKCm/PRKD1) (Homo sapiens, UniProt Q15139); experiment: In vitro kinase assay, PKC mu; type: biochemical; conditions: 10 μM ATP
Excerpt: as §1, §2, §3

PKCβ1 [2] = biological target: T1, PKCβ1; experiment: Surface plasmon resonance (SPR) binding to immobilized PKCβ1; conditions: 100–8000 nM ENDX; no saturation, accurate KD could not be established
Procedure: Binding assays were performed at 25 °C on a Biacore T200 biosensor (GE healthcare). Purified PKCβ1 protein were immobilized on a CM5 S sensor chip using amino coupling and immobilization buffer (10 mM HEPES, 150 mM NaCl, pH 7.4, P20 0.01% (w/w)) and acetate pH 5.0 at a flow rate of 10 µL/min and reaching 10,000-12,000 resonance units (RUs). ENDX at concentrations ranging from 0–8000 nM in phosphate buffer (Gibco) with 2% DMSO (v/v) and 0.01% (w/w) P20 were run over the chips at a flow rate of 50 µl/min for 30 s. Binding kinetics were derived from sensograms using Biacore BIA evaluation software (GE). Sensograms were subtracted for background contributions, and affinity constants were derived using a steady-state affinity fitting of a 1:1 interaction model.

[3] = tested on: AKT phosphorylation (pAKT^Ser473, pAKT^Thr308, p-AKT substrates) in MCF7AC1 cells; experiment: Immunoblot of AKT signaling and PARP cleavage, MCF7AC1; type: cell-based, human
Procedure: The ENDX hydrochloride utilized in this study was synthesized in collaboration between Mayo Clinic and National Institute of Health (NIH). Estrogen deprived MCF7AC1 were treated with vehicle control or ENDX (National Cancer Institute) for 24 h. […] For the insulin (Sigma-Aldrich, #I0516) experiments, MCF7AC1 and T47D cells were maintained in serum-free medium for 24 h prior to pretreatment with vehicle control or drugs for 2 h followed by treatment with 100 nM insulin for 1 h.
Protein lysates were prepared using the RIPA lysis buffer system (ChemCruz #sc-24948) and quantified using the DC^TM Protein Assay reagents (Bio-Rad #5000112). Equal amounts of protein lysates were separated on 10% Criterion gels (Bio-Rad #3450112), transferred to PVDF membranes (Bio-Rad #1620177), blocked in TBST-5% milk and probed with primary antibodies listed in Supplementary Table 5, at the indicated dilutions. Membranes were incubated with HRP-conjugated anti-rabbit (CST #7074) or anti-mouse (CST #7076) secondary antibodies and visualized using chemiluminescent West Pico (Thermo Scientific #34580) or West Femto (Thermo Scientific #34096) reagents and a Li-Cor Odyssey® XF imager. Protein lysates from the MCF7AC1 xenograft model were obtained from a previous study. Quantitation of the protein bands signal intensity was performed using the NIH ImageJ image analysis software (https://imagej.nih.gov/ij///index.html). For the quantitation of the phospho protein levels, we first normalized total protein levels to β-actin loading control and used these values to normalize the phospho protein levels and compared change in protein expression levels relative to vehicle control normalized to 1.0. For the quantitation of total protein levels, we normalized the total protein levels to β-actin and compared change in expression levels relative to vehicle control normalized to 1.0. All blots were processed in parallel and derived from the same experiments. Unprocessed immunoblot images are provided in Supplementary Figs. 9–13.

BT549 cells = experiment: Crystal violet growth assay, BT549; type: cell-based, human; conditions: day seven
Excerpt: Supplementary Figure 8. […]
ANOVA. b, Effects of ENDX on cell proliferation at the indicated concentrations on day seven of
treatment. […]

[4] = tested on: PKCβ1 and AKT^Ser473 phosphorylation in MDAMB231 cells; experiment: Immunoblot of PKCβ1 and pAKT^Ser473, MDAMB231; type: cell-based, human; conditions: 5 µM, 2 h pretreatment, 100 nM insulin 1 h
Excerpt: To determine whether the observed effects of ENDX on PKCβ1 degradation and AKT^Ser473 phosphorylation inhibition are dependent on the presence of ERα, we additionally evaluated ENDX effects on PKCβ1 degradation and AKT^Ser473 phosphorylation in the ER negative (ER-) MDAMB231 breast cancer cells and nonbreast HEK293F cells, a human embryonic kidney cell line, both of which express higher amounts of PKCβ1 compared to ERα+ MCF7AC1 cells (Supplementary Fig. 5a). […] To determine whether the addition of ERα to the MDAMB231 cell line could facilitate ENDX effects on PKCβ1, we performed doxycycline (dox)-induced ERα protein expression in MDAMB231 cells and evaluated ENDX effects on PKCβ1 using the above-mentioned experimental conditions. […] Additionally, we pretreated MDAMB231 and HEK293F cells with or without 5 µM ENDX for 1 h followed by 0 or 200 nM PMA treatment for 20 min and evaluated effects on PKCβ1.
Supplementary Figure 5. Effects of ENDX on PKCβ1, phospho -PKCB1Ser661 and phospho-AKTSer473 expression levels in ERα- breast cancer cells. a, Basal expression of PKCβ1 and ERα in the indicated cell lines. […]

[5] = CSS medium, 24 h, not at 0.01 and 0.1 μM

T1 sequence (P05771 whole entry): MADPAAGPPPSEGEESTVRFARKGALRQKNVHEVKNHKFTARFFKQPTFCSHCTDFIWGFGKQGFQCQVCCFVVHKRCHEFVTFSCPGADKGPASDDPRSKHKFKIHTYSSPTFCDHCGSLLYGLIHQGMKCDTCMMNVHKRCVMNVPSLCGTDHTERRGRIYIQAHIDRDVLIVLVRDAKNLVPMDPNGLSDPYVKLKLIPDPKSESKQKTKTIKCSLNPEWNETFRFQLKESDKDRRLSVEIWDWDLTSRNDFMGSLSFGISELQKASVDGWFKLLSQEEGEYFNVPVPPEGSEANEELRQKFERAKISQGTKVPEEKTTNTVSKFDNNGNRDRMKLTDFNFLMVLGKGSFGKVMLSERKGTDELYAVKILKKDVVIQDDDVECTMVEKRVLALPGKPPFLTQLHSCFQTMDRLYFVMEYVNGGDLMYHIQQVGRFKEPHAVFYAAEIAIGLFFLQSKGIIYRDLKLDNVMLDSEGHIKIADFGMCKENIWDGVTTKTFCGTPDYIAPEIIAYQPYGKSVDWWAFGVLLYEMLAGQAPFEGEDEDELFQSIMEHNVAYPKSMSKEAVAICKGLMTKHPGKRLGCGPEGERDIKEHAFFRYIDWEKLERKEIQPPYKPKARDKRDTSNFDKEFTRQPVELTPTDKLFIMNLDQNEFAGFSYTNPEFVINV
Chain of PKC iota (PKCi) (P41743 whole entry): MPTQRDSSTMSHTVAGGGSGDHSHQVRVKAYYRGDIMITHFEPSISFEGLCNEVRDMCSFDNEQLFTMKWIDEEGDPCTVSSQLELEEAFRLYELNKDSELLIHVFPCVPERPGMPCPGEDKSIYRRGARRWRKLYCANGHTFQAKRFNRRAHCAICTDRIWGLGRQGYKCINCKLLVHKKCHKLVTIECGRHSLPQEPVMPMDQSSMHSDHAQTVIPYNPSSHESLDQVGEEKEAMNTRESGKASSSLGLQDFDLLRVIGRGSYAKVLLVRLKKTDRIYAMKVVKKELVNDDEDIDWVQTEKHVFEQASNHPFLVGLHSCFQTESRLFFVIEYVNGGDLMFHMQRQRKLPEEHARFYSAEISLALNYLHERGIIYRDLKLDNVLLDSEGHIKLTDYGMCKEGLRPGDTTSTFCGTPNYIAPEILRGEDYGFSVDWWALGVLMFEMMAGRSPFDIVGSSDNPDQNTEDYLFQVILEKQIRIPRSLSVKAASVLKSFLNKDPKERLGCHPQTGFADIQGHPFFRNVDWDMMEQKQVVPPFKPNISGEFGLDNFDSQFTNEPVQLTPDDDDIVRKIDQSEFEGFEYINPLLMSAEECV
Chain of PKC beta 2 (PKCb2) (P05771 1-673 isoform P05771-2): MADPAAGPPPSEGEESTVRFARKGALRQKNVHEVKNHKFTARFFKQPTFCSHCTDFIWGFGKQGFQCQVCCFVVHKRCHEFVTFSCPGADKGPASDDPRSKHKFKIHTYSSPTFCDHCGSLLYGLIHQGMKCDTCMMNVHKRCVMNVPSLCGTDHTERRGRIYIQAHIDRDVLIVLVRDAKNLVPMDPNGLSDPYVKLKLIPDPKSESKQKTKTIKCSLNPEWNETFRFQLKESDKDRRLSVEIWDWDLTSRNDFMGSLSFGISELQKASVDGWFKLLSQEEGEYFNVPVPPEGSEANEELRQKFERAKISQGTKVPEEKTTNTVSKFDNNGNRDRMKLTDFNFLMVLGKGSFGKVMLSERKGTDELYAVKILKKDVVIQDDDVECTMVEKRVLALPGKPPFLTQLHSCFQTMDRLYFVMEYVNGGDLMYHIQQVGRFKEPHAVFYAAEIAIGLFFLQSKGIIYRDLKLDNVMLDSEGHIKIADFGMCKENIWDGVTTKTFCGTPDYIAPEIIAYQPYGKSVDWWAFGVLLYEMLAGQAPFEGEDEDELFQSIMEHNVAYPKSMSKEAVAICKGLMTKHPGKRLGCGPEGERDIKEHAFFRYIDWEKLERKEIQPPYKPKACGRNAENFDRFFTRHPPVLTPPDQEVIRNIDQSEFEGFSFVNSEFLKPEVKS
Chain of PKC mu (PKCm/PRKD1) (Q15139 whole entry): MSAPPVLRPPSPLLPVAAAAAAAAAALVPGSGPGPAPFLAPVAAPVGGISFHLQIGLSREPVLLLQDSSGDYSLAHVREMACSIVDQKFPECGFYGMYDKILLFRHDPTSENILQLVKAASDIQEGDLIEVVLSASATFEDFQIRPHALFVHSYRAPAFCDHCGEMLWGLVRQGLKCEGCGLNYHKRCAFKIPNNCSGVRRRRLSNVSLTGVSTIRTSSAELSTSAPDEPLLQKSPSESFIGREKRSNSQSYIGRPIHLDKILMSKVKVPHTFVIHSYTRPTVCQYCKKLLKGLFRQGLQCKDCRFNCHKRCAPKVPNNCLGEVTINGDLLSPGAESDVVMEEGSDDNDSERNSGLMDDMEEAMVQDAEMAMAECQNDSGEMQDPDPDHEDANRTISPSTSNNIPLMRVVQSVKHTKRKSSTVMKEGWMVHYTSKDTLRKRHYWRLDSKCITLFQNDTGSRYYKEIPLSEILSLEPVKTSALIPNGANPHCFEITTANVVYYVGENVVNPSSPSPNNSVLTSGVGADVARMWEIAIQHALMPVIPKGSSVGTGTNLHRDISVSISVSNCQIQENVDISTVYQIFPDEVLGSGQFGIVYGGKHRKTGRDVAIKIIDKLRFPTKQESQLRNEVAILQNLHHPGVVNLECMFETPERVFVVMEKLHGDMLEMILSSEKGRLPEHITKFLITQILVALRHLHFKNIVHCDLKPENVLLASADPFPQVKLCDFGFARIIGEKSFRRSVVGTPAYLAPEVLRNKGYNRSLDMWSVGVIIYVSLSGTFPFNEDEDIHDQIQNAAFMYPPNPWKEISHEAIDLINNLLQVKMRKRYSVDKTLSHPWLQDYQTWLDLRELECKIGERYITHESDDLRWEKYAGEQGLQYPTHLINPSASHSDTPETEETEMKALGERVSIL

## CC/C(=C(\c1ccc(O)cc1)c1ccc(OCCNC)cc1)c1ccccc1 [ENDX, Z-endoxifen]
PKCβ1 [1]
  IC50: 0.357 µM and 0.36 µM
PKC beta 2 (PKCb2)
  IC50: 43.3 µM
PKC iota (PKCi)
  IC50: > 50 µM
PKC mu (PKCm/PRKD1)
  IC50: 31.6 µM
PKCβ1 [2]
  Binding to PKCβ1 by SPR: binds PKCβ1
[3]; CSS medium, 24 h, 5 µM
  Effect on AKT^Thr308 phosphorylation: did not alter AKT^Thr308 phosphorylation
[3]; CSS medium, 24 h, 0.01, 0.1 and 5 µM tested
  Concentration increasing PARP cleavage: 5 µM
[3]; CSS medium, 24 h, 0.01 and 0.1 µM
  Effect on AKT^Thr308 phosphorylation: stimulated AKT^Thr308 phosphorylation
[3]; [5]
  Concentration attenuating AKT^Ser473 phosphorylation: 5 µM
  Concentration reducing phosphorylation of AKT substrates: 5 µM
[3]; serum starved, 100 nM insulin 1 h, 5 μM
  Effect on insulin-stimulated AKT^Thr308 phosphorylation: able to block AKT^Thr308 phosphorylation
[3]; serum starved, 2 h pretreatment, 100 nM insulin 1 h, 5 µM
  Effect on insulin-stimulated phosphorylation of AKT substrates: diminished insulin-stimulated phosphorylation of AKT substrates
[3]; serum starved, 2 h pretreatment, 100 nM insulin 1 h, not at 0.01 and 0.1 μM
  Concentration blocking insulin-stimulated AKT^Ser473 phosphorylation: 5 µM
[3]; serum starved, 2 h pretreatment, 200 nM PMA 20 min, 5 μM
  Effect on PMA-stimulated AKT^Ser473 phosphorylation: reduced AKT^Ser473 phosphorylation
BT549 cells
  Concentrations at which growth was inhibited: > 7.5 µM
[4]
  Effect on PKCβ1 protein levels: did not impact PKCβ1 protein levels
  Effect on insulin induced AKT^Ser473 phosphorylation: did not inhibit this phosphorylation
